The values below come from publication PMC9549646, “Diversification of phenolic glucosides by two UDP-glucosyltransferases featuring complementary regioselectivity” (Microbial Cell Factories, 2022).

Bounds are passed on as bounds.

The target of experiment [1] is T1, UGT85A1 (Arabidopsis thaliana, UniProt Q9SK82).
T1 construct: N-terminal His6-tagged
T1 sequence (Q9SK82 1-489): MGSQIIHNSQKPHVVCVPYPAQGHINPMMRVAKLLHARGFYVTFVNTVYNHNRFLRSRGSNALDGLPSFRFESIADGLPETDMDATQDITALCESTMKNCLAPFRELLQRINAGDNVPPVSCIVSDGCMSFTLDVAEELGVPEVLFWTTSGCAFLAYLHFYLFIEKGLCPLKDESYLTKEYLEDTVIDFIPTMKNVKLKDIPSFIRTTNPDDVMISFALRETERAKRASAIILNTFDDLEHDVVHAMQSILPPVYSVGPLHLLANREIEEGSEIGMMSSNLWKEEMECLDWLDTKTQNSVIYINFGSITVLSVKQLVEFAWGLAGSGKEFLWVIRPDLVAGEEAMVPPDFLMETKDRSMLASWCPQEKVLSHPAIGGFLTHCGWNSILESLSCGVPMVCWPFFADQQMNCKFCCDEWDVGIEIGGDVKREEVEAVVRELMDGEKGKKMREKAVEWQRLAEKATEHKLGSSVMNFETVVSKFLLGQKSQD
The experiment can be described thus: in vitro glucosylation by purified enzyme, HPLC ([…] conversion). Type of experiment: biochemical.

The target in experiment [2] is T2, Prolyl endopeptidase (PEP) (Elizabethkingia meningoseptica, UniProt P27028).
T2 construct: gene f1pep1
T2 sequence (P27028 21-705): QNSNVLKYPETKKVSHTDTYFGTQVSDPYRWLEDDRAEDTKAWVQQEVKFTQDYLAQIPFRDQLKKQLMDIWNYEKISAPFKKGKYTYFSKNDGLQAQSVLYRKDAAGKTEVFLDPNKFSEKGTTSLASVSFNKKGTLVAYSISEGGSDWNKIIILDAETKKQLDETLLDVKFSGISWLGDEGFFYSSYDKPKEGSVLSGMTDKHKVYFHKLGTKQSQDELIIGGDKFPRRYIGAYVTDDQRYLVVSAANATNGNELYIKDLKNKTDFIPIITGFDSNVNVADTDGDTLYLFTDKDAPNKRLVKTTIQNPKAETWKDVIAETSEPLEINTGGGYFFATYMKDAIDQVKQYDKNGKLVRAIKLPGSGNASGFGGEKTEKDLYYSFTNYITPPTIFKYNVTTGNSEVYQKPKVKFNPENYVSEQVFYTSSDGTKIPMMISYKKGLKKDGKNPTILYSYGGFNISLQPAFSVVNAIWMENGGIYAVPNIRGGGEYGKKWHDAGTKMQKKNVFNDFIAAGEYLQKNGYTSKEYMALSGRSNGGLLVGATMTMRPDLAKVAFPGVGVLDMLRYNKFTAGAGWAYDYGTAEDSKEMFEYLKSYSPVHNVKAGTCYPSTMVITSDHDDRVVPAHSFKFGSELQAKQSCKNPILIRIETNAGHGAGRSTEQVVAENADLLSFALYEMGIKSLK
The experiment can be described thus: chromogenic PEP assay, inhibition rate at […]. Type of experiment: biochemical.

As for `OCc1ccc(O)cc1` [compound 1, p-hydroxybenzyl alcohol], in experiment [1], the “in vitro glucosylation by purified enzyme, HPLC (98.9% conversion)” value is reported as “UGT85A1 showed higher selectivity than RrUGT17, producing only the alcoholic glucoside 1b”.
For `CC(O[C@@H]1O[C@H](CO)[C@@H](O)[C@H](O)[C@H]1O)c1ccc(O)cc1` (stereo partly shown) [13b], the inhibition at 500 µM in experiment [2] is above 50%.
The same measure, in the same setting: next, `OC[C@H]1O[C@@H](OCc2cccc(O)c2)[C@H](O)[C@@H](O)[C@@H]1O` [12b]: above 50%.
Still for that read-out and setting: next, `CC(O[C@@H]1O[C@H](CO)[C@@H](O)[C@H](O)[C@H]1O)c1cccc(O)c1` (stereo partly shown) [14b]: above 50%.

For orientation: inhibition means the relative decrease from the control value, in per cent. Higher therefore signals strong suppression.
